Values quoted from earlier work, collected in patent publication US6346524B1, “Cancer treatment with temozolomide” (Schering Corporation, priority 1999, dated 2002).

How the values were obtained:
[1] = test system: advanced melanoma; details: patients with advanced melanoma; Journal of Clinical Oncology, Vol 13, No. 4, 1995, pp 910-913
[2] = test system: advanced melanoma; details: patients having advanced melanoma; Newlands et al. Br. J. Cancer 65 (2) 287-291 (1992)

Cn1nnc2c(C(N)=O)ncn2c1=O [Temozolomide, 3,4-dihydro-3-methyl-4-oxoimidazo-[5,1-d] 1,2,3,4-tetrazin-8-carboximide]
clinical response achieved, % of patients [1]: 21% | clinical responses achieved, % of patients [2]: 17%
